According to PubChem BioAssay AID330 (DTP/NCI, 2004):
Several values for one entry are separate records, joined by “and”; a condition that tells them apart may be missing. Equal values may be shown once. Toxic doses and inconclusive results are not listed. Rule for the calls: active = survival T/C of 150% or more; inactive = T/C below 125% in these data. Square brackets hold non-standard residues; d marks the D form. Peptide text beside a SMILES is read from it. * marks the point of attachment. ξ: configuration not given here. Cbz = O=C(OCc1ccccc1)*; ξV = CC(C)C(N)C(=O)O; Sar = CNCC(=O)O

System: P388 leukemia ip, CD2F1 mice, survival T/C
Assay: NCI In Vivo Anticancer Drug Screen. Data for tumor model P388 Leukemia (intraperitoneal) in CD2F1 (CDF1) mice
Conditions: endpoint: median survival time, higher = longer survival
Method in brief: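 Mice carrying the transplanted tumor received test compound or vehicle. Survival was recorded in each group, and the value is the treated-group measurement divided by that of the vehicle-treated control group.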

[1] = dose: 7.5 mg/kg/injection, schedule: Q01DX005 (ip), vehicle: Klucel (hydroxypropylcellulose) (HPC)
[2] = dose: 15.0 mg/kg/injection, schedule: Q01DX005 (ip), vehicle: Klucel (hydroxypropylcellulose) (HPC)
[3] = dose: 30.0 mg/kg/injection, schedule: Q01DX005 (ip), vehicle: Klucel (hydroxypropylcellulose) (HPC)
[4] = dose: 50.0 mg/kg/injection, schedule: Q01DX009 (ip), vehicle: saline
[5] = dose: 100.0 mg/kg/injection, schedule: Q01DX009 (ip), vehicle: saline
[6] = dose: 50.0 mg/kg/injection, schedule: Q01DX005 (ip), vehicle: saline with Tween-80
[7] = dose: 100.0 mg/kg/injection, schedule: Q01DX005 (ip), vehicle: saline with Tween-80
[8] = dose: 12.5 mg/kg/injection, schedule: Q01DX009 (ip), vehicle: saline with Tween-80
[9] = dose: 25.0 mg/kg/injection, schedule: Q01DX009 (ip), vehicle: saline with Tween-80
[10] = dose: 50.0 mg/kg/injection, schedule: Q01DX009 (ip), vehicle: saline with Tween-80
[11] = dose: 100.0 mg/kg/injection, schedule: Q01DX009 (ip), vehicle: saline with Tween-80
[12] = dose: 200.0 mg/kg/injection, schedule: Q01DX009 (ip), vehicle: saline
[13] = dose: 200.0 mg/kg/injection, schedule: Q01DX005 (ip), vehicle: saline with Tween-80
[14] = dose: 200.0 mg/kg/injection, schedule: Q01DX009 (ip), vehicle: saline with Tween-80
[15] = dose: 400.0 mg/kg/injection, schedule: Q01DX009 (ip), vehicle: saline with Tween-80

Measured: T/C

COc1ccc(-n2cnc3[nH]ncc3c2=O)cc1
inactive: [1] 104 % of control | [2] 106 % of control | [3] 110 % of control

c1cc[n+](CCC2OCCO2)cc1
inactive: dose: 12.5 mg/kg/injection, schedule: Q01DX009 (ip), vehicle: saline 109 % of control | dose: 25.0 mg/kg/injection, schedule: Q01DX009 (ip), vehicle: saline 109 % of control | [4] 100 % of control | [5] 108 % of control

CCOC(=O)C1=C(O)C[C@]2(O)C3CC=C(C)[C@@H]4CCO[C@](OC)(C[C@H]2C1)[C@]34C(=O)OC (some centres undefined)
inactive: [6] 100 % of control | [7] 96 % of control

O=C1c2cscc2C(=O)c2cscc21
inactive: [8] 98 % of control | [9] 100 % of control | [10] 96 % of control | [11] 94 % of control

CC(C)(COS(C)(=O)=O)COS(C)(=O)=O
inactive: [4] 107 % of control | dose: 50.0 mg/kg/injection, schedule: Q01DX009 (ip), vehicle: suspension in saline 96 % of control | [5] 91 % of control | dose: 100.0 mg/kg/injection, schedule: Q01DX009 (ip), vehicle: suspension in saline 101 % of control and 91 % of control | [12] 110 % of control | dose: 200.0 mg/kg/injection, schedule: Q01DX009 (ip), vehicle: suspension in saline 104 % of control and 92 % of control | dose: 400.0 mg/kg/injection, schedule: Q01DX009 (ip), vehicle: suspension in saline 112 % of control and 90 % of control

N#CCCSc1ccccc1N=Cc1ccccc1O
inactive: [4] 101 % of control | [5] 99 % of control | [12] 95 % of control

O=C(O)C(=O)O.[Mn]
inactive: dose: 100.0 mg/kg/injection, schedule: Q04DX003 (ip), vehicle: saline with Tween-80 86 % of control

CC(=O)Nc1ccc2c(C)ccnc2c1
inactive: dose: 50.0 mg/kg/injection, schedule: Q01DX009 (ip), vehicle: distilled water + alcohol 103 % of control | dose: 100.0 mg/kg/injection, schedule: Q01DX009 (ip), vehicle: distilled water + alcohol 104 % of control | dose: 200.0 mg/kg/injection, schedule: Q01DX009 (ip), vehicle: distilled water + alcohol 105 % of control

N=C(N=C(C(Cl)(Cl)Cl)C(Cl)(Cl)Cl)N=C(C(Cl)(Cl)Cl)C(Cl)(Cl)Cl
inactive: dose: 60.0 mg/kg/injection, schedule: Q01DX005 (ip), vehicle: saline with Tween-80 100 % of control | dose: 120.0 mg/kg/injection, schedule: Q01DX005 (ip), vehicle: saline with Tween-80 99 % of control | dose: 240.0 mg/kg/injection, schedule: Q01DX005 (ip), vehicle: saline with Tween-80 104 % of control

CC(C)C(NC(=O)CN(C)C(=O)OCc1ccccc1)C(=O)O (centres undefined) (Cbz-[Sar]-[ξV]-OH)
inactive: [6] 100 % of control | [7] 102 % of control

N#CC(C#N)=CNCC1CC1
inactive: [2] 102 % of control | [3] 100 % of control | dose: 60.0 mg/kg/injection, schedule: Q01DX005 (ip), vehicle: Klucel (hydroxypropylcellulose) (HPC) 98 % of control and 99 % of control

O=[N+]([O-])O.[Cl-].[Cl-].[NH-]CC[NH-].[NH-]CC[NH-].[Rh+3]
inactive: dose: 12.5 mg/kg/injection, schedule: Q04DX003 (ip), vehicle: distilled water + Tween-80 106 % of control | dose: 25.0 mg/kg/injection, schedule: Q04DX003 (ip), vehicle: distilled water + Tween-80 99 % of control | dose: 50.0 mg/kg/injection, schedule: Q04DX003 (ip), vehicle: distilled water + Tween-80 108 % of control | dose: 100.0 mg/kg/injection, schedule: Q04DX003 (ip), vehicle: distilled water + Tween-80 111 % of control | dose: 200.0 mg/kg/injection, schedule: Q04DX003 (ip), vehicle: distilled water + Tween-80 102 % of control

C=CCCC/C=C/CN1CCOCC1
inactive: [4] 103 % of control | [5] 105 % of control

CC1=CC(=O)C(=O)C2=C1OC1(C2)C(C)CCC2C3(C)CCC(O)C(C)(C)C3CCC21C (centres undefined)
inactive: dose: 25.0 mg/kg/injection, schedule: Q01DX005 (ip), vehicle: distilled water + Tween-80 95 % of control | dose: 25.0 mg/kg/injection, schedule: Q01DX005 (ip), vehicle: saline with Tween-80 95 % of control | dose: 50.0 mg/kg/injection, schedule: Q01DX005 (ip), vehicle: distilled water + Tween-80 115 % of control | [6] 111 % of control | [7] 109 % of control

Cc1[nH]c2ccc(N(C)C)cc2c(=O)c1CN(CCO)CCO
inactive: [6] 108 % of control | [7] 100 % of control | [13] 100 % of control

Oc1ccccc1C=NCCCN=Cc1ccccc1O
inactive: dose: 18.75 mg/kg/injection, schedule: Q01DX009 (ip), vehicle: saline with Tween-80 103 % of control | dose: 37.5 mg/kg/injection, schedule: Q01DX009 (ip), vehicle: saline with Tween-80 110 % of control | [10] 109 % of control | dose: 75.0 mg/kg/injection, schedule: Q01DX009 (ip), vehicle: saline with Tween-80 111 % of control | [14] 121 % of control | [15] 119 % of control

O=[N+]([O-])c1ccccc1NN=NCCF
inactive: dose: 3.12 mg/kg/injection, schedule: Q01DX005 (ip), vehicle: Klucel (hydroxypropylcellulose) (HPC) 100 % of control | dose: 6.25 mg/kg/injection, schedule: Q01DX005 (ip), vehicle: Klucel (hydroxypropylcellulose) (HPC) 100 % of control | dose: 12.5 mg/kg/injection, schedule: Q01DX005 (ip), vehicle: Klucel (hydroxypropylcellulose) (HPC) 109 % of control

O=C1C=C(c2ccccc2)CC1
inactive: [9] 88 % of control | [10] 100 % of control | [11] 111 % of control

CC(=O)Oc1ccc2ccc3nonc3c2c1
inactive: [6] 99 % of control | [7] 99 % of control | [13] 94 % of control

Nc1ccc2c(Cl)cc(Cl)cc2c1
inactive: [10] 100 % of control | [11] 104 % of control

O=c1c2ccccc2c(=O)n2c(=O)c3ccccc3c(=O)n12
inactive: dose: 50.0 mg/kg/injection, schedule: Q01DX009 (ip), vehicle: Klucel (hydroxypropylcellulose) (HPC) 100 % of control | dose: 100.0 mg/kg/injection, schedule: Q01DX009 (ip), vehicle: Klucel (hydroxypropylcellulose) (HPC) 100 % of control | dose: 200.0 mg/kg/injection, schedule: Q01DX009 (ip), vehicle: Klucel (hydroxypropylcellulose) (HPC) 104 % of control | dose: 400.0 mg/kg/injection, schedule: Q01DX009 (ip), vehicle: Klucel (hydroxypropylcellulose) (HPC) 103 % of control

O=C(O)C[N-]CC[N-]CC(=O)O.[Cl][Pt+2][Cl]
inactive: dose: 6.25 mg/kg/injection, schedule: Q04DX002 (ip), vehicle: saline with Tween-80 108 % of control | dose: 12.5 mg/kg/injection, schedule: Q04DX002 (ip), vehicle: saline with Tween-80 103 % of control | dose: 25.0 mg/kg/injection, schedule: Q04DX002 (ip), vehicle: saline with Tween-80 113 % of control | dose: 50.0 mg/kg/injection, schedule: Q04DX002 (ip), vehicle: saline with Tween-80 109 % of control | dose: 100.0 mg/kg/injection, schedule: Q04DX002 (ip), vehicle: saline with Tween-80 120 % of control | dose: 200.0 mg/kg/injection, schedule: Q04DX002 (ip), vehicle: saline with Tween-80 102 % of control

C(#CCOc1ccc2c(c1)OCO2)COc1ccc2c(c1)OCO2
inactive: dose: 50.0 mg/kg/injection, schedule: Q01DX009 (ip), vehicle: other 103 % of control | dose: 100.0 mg/kg/injection, schedule: Q01DX009 (ip), vehicle: other 104 % of control | dose: 200.0 mg/kg/injection, schedule: Q01DX009 (ip), vehicle: other 105 % of control

C#CC1=CC(=O)C(OC)=CC1=O
inactive: [1] 99 % of control | [2] 100 % of control

C[C@]12C=CC(=O)C=C1CC[C@@H]1[C@@H]2[C@@H](O)C[C@@]2(C)[C@H]1CC[C@]2(O)C(=O)COC(=O)CCC(=O)O
inactive: dose: 66.0 mg/kg/injection, schedule: Q01DX009 (ip), vehicle: saline with Tween-80 109 % of control | [11] 109 % of control | dose: 150.0 mg/kg/injection, schedule: Q01DX009 (ip), vehicle: saline with Tween-80 109 % of control

Cc1cc(N=Nc2ccccc2)cc(C)c1N
inactive: [11] 90 % of control | [14] 90 % of control | [15] 100 % of control

O=C1NC2CCCC1C(c1ccccc1)NC2c1ccccc1 (centres undefined)
inactive: dose: 100.0 mg/kg/injection, schedule: Q04DX003 (ip), vehicle: suspension in saline 98 % of control | dose: 200.0 mg/kg/injection, schedule: Q04DX003 (ip), vehicle: suspension in saline 99 % of control | dose: 400.0 mg/kg/injection, schedule: Q04DX003 (ip), vehicle: suspension in saline 100 % of control

CCCCCCCCCCCCCCCCN(C)CCO
inactive: [8] 104 % of control | [9] 106 % of control | [10] 99 % of control
